Measured values: ChEMBL document CHEMBL3507680, “University of Dundee, Gates Library screen for HepG2 cell viability”

Assay: Human HepG2 cell viability assay in 384 well format
Type: toxicity, cell-based
Parameters: dose 125 nL, time 70.5 hour; concentration not given beside the values
Details: HepG2 cells, read-out: Inhibition

Row | SMILES | cytotoxicity at 70.5 h
1 | CCOc1ccc(C(=O)N(C)C)cc1NC(=O)c1ccsc1 | -10.6%
2 | CCCS(=O)(=O)N(C)C(=O)CCc1ccccc1 | -8.46%
3 | NC(=O)Cn1ccc(NC(=O)C2(c3cccc(F)c3)CCC2)n1 | 19.5%
4 | Cc1cc(CNC(=O)c2cccs2)ccc1S(C)(=O)=O | -3.96%
5 | N#CC(NC(=O)CCC(=O)NC1CCCC1)c1ccc(F)cc1F (stereo unspecified) | -11.2%
6 | CC1c2cccn2CCN1S(=O)(=O)N1CCCCCC1 (stereo unspecified) | -14.2%
7 | CCCN(CC1CC1)C(=O)CN1CCCC1c1cnn(C)c1 (stereo unspecified) | -10.4%
8 | CCOc1ccc(N(C)S(=O)(=O)c2c[nH]c(C(C)C)n2)cc1 | -4.89%
9 | CC(Cn1cccn1)NC(=O)N1CCC(NS(C)(=O)=O)CC1 (stereo unspecified) | -17.2%
10 | Cc1nc2n(n1)CC(NCC(=O)N(C)Cc1cccs1)CC2 (stereo unspecified) | 2.31%
11 | CN(c1cccc(C#N)c1)S(=O)(=O)c1cc(C(=O)O)ccc1Cl | -12.6%
12 | Cc1cc(C(=O)Nc2ccc(OCC3CCOCC3)cc2)[nH]n1 | 1.95%
13 | Cc1cc(NC(=O)Cn2nc(C)c(C#N)c2N)ccc1Br | -7.3%
14 | COc1ccc(C)cc1NC(=O)Cn1nc(C)c(C#N)c1N | -5.55%
15 | Cc1nn(CC(=O)Nc2ccc(F)cc2)c(N)c1C#N | -0.498%
16 | O=C(Cn1cc(C2CC2)nn1)NC(c1ccc(Cl)cc1)C1CC1 (stereo unspecified) | -8.06%
17 | O=C(Cn1cc(C2CC2)nn1)NC(c1cc(F)ccc1F)C1CC1 (stereo unspecified) | -5.37%
18 | CNC(=O)C(C)(C)CNC(=O)Nc1ccc(C)cn1 | -3.94%
19 | CNC(=O)C(C)(C)CNC(=O)Nc1ccncc1C | -9.08%
20 | NC(=O)c1cccc(CCNC(=O)N2CCCC2)c1 | -8%
21 | COc1cc(NCc2ncc[nH]2)ccc1Br | -1.95%
22 | COCCn1cc(NC(=O)NCC(C)N2CCOCC2)cn1 (stereo unspecified) | -13.2%

Row | SMILES | cytotoxicity at 70.5 h
23 | CC(CC#N)N(C)Cc1ccc(F)cc1F (stereo unspecified) | -6.44%
24 | C=C(C)CN(CC)Cc1nc(CC)no1 | -8.43%
25 | CC(CC#N)N(C)Cc1ccc(F)cc1C#N (stereo unspecified) | 11.9%
26 | Cc1cnn(CCNC(C)c2nnc(-c3ccccc3)o2)c1 (stereo unspecified) | -7.05%
27 | C=C(C)CN1CCOC(Cn2cncn2)C1 (stereo unspecified) | 32%
28 | COc1ccc(NC(=O)C2CCCO2)cc1OCc1cccnc1 (stereo unspecified) | 49.9%
29 | Cc1ccc2cc(C(=O)N3CCN(S(C)(=O)=O)CC3)[nH]c2c1 | 12.7%
30 | O=C(COc1ccccc1)N(Cc1ccncc1)C1CC1 | -8.79%
31 | COc1ccccc1C(C)N1CCN(S(C)(=O)=O)CC1 (stereo unspecified) | 11.4%
32 | CC(=O)NC(C)(C)c1noc(C2(C#N)CCCCC2)n1 | -3.45%
33 | O=C(NCc1nncn1C1CC1)c1ccc(F)c(COCC2CC2)c1 | 7.64%
34 | COCCC1(CNC(=O)NCC2CCCS2)CCCC1 (stereo unspecified) | -3.7%
35 | CC(NC(=O)N1CCN(c2cccs2)CC1)c1ccc(C#N)cc1 (stereo unspecified) | -2.79%
36 | CC(NC(=O)N1CCN(c2cccs2)CC1)c1ccncc1 (stereo unspecified) | -3.43%
37 | CC(=O)N1CCCN(C(=O)NCCCc2cn[nH]c2C)CC1 | -2.68%
38 | COCCOCC(=O)N(C)Cc1ccc(OCc2cccs2)cc1 | -6.68%
39 | CCOC(=O)C1CCN(CCCc2nnnn2-c2ccccc2)CC1 | -3.5%
40 | CC(=O)N(C)Cc1ccc(OCc2cccs2)cc1 | -2.58%
41 | CCOCCN1CCN(CCCc2nnnn2-c2ccccc2)CC1 | -5.57%
42 | CC(C)c1nsc(N2CCc3sccc3C2)n1 | -11.5%
43 | COCCC1(CNC(=O)NCC2CCCN(C)C2)CCCC1 (stereo unspecified) | -1.2%
44 | COc1ccc(CNC(C)c2cnc3cc(C)nn3c2C)cc1 (stereo unspecified) | -2.4%

Row | SMILES | cytotoxicity at 70.5 h
45 | Cc1cc2ncc(C(C)NCc3cccnc3)c(C)n2n1 (stereo unspecified) | -3.89%
46 | CC(C)C1CN(C(=O)Nc2cnn(CC(F)F)c2)CCO1 (stereo unspecified) | -4.6%
47 | Cc1nc(C2CCCN2CCOCC2CC2)no1 (stereo unspecified) | -11.1%
48 | Cc1cnn(CCCNC(=O)NCCS(=O)(=O)Nc2ccccc2)c1 | -25.5%
49 | NC(=O)C1CCN(CCCNC(=O)Nc2nncs2)CC1 | -14.5%
50 | Cc1ccccc1C(CC(=O)N1CCc2sccc2C1)NC(N)=O (stereo unspecified) | -21.9%
51 | Cc1csc(NC(=O)NCCCN2CCC(C(N)=O)CC2)n1 | -16.3%
52 | CN1CC(C(=O)NCCc2ccc(Br)cc2F)CC1=O (stereo unspecified) | -19.2%
53 | CCC(Nc1ccc(CCN2CCCCC2)cc1)C(N)=O (stereo unspecified) | -8.14%
54 | CN1CC(C(=O)NCc2ccc(Br)cc2F)CC1=O (stereo unspecified) | -14.4%
55 | Cc1cnn(CCCNC(=O)NC(C)C(=O)Nc2ccccc2)c1 (stereo unspecified) | 6.05%
56 | CSc1ccc(OCCN2CCNC(=O)C2C)cc1 (stereo unspecified) | -15.5%
57 | O=C(Cc1ccccc1O)NC1CCCN(c2ccccc2F)C1=O (stereo unspecified) | -18.3%
58 | Cc1c(C(=O)NCC(C)(C)S(C)(=O)=O)cccc1-c1ccccn1 | -16.9%
59 | Cc1ccccc1CNC(=O)CNc1ccc(OC2CCOC2)cc1 (stereo unspecified) | -13.6%
60 | COc1ccccc1CN(Cc1nc(C)no1)C1CC1 | -20.3%
61 | Cc1cc(CC(=O)NC2CCCN(c3ccccc3Cl)C2=O)n[nH]1 (stereo unspecified) | -19%
62 | COCc1nn(Cc2ccc(Br)s2)c(=O)o1 | -9.84%
63 | COc1ccccc1CN(Cc1nc(CC(C)C)no1)C1CC1 | -14.2%
64 | CCCc1nn(Cc2ccc(Br)s2)c(=O)o1 | -23.4%
65 | NC1CCCN(Cc2cccc(C(F)(F)F)c2)C1=O (stereo unspecified) | -7.1%
66 | CC(C)c1nc(C2CCCN2CCS(C)(=O)=O)no1 (stereo unspecified) | -12.9%

Row | SMILES | cytotoxicity at 70.5 h
67 | Cc1cc(CC(=O)NC2CCCN(Cc3ccccc3)C2=O)n[nH]1 (stereo unspecified) | -21.2%
68 | Cc1cc(F)ccc1N1CCCC(NC(=O)CCCn2ccnc2)C1 (stereo unspecified) | -26%
69 | CN(CCc1ccc2c(c1)CCO2)CC1CCS(=O)(=O)C1 (stereo unspecified) | -9.73%
70 | CCc1noc(CN(C)C(=O)C(C)(C)Oc2cccc(Cl)c2)n1 | 7.49%
71 | Cc1cc(C)c(CNC(=O)NCc2nnc3n2CCC3)c(=O)[nH]1 | 14.7%
72 | Cc1cccc(-c2nc(C)nn2CN2CCN(S(C)(=O)=O)CC2)c1 | -3.93%
73 | COC(=O)CNC(=O)C1(NC(=O)c2ccc3[nH]ncc3c2)CCCC1 | 0.707%
74 | CC(C)S(=O)(=O)Cc1cccc(NC(=O)c2ccc[nH]2)c1 | -11%
75 | CCc1noc(CN(C)C(=O)COc2cccc(Cl)c2C)n1 | -6.73%
76 | CC(C)C(CCO)NC(=O)Nc1cc(F)ccc1-n1cccn1 (stereo unspecified) | -3.1%
77 | CC(C)c1nc(C2CCCN2c2cnc3ccccc3n2)no1 (stereo unspecified) | -6.53%
78 | COCC(=O)N1CCC(Nc2ccnc3ccc(Cl)cc23)CC1 | 4.85%
79 | Cc1ccc(S(C)(=O)=O)cc1C(=O)NS(=O)(=O)c1cccs1 | -5.12%
80 | Cc1nc2c(s1)C(N(C)C(=O)NCCCC(C)(C)CO)CCC2 (stereo unspecified) | -6.11%
81 | O=C(CCOCC(F)(F)F)NS(=O)(=O)c1cccnc1 | -3.03%
82 | CCC(C)NS(=O)(=O)Cc1cccc(NC(=O)c2ccc[nH]2)c1 (stereo unspecified) | -2.71%
83 | CCC(C)NS(=O)(=O)Cc1cccc(NC(=O)C2=CCCC2)c1 (stereo unspecified) | -4.4%
84 | COc1cc(F)cc(NC(=O)NCc2cccc(N(C)C)n2)c1 | 16.5%
85 | Cc1cc(C)c(CNC(=O)NCc2nnc3n2CCCCC3)c(=O)[nH]1 | -5.09%
86 | CC1CCN(C(=O)CSCc2noc(C(C)C)n2)CC1 | -4.52%
